Reference: patent US8563588B2, “Imidazolone derivatives, method for the preparation thereof and biological applications” (Universite de Rennes 1, priority 2007, dated 2013)

molecular target: Rat recombinant DYRK1A (Rattus norvegicus, UniProt Q63470); assay: Assaying of the kinase activity of DYRK1A (33P-ATP, myelin basic protein, P81 filter); format: biochemical; details: 15 μM ATP, 30° C., 30 min; read-out: IC50 DYRK1A;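 further: GST fusion rat DYRK1A made in E. coli, scintillation counting of label bound to substrate, activity as percent of the inhibitor-free maximum after blank subtraction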

Row | SMILES | IC50 [nM]
1 | C=CCNC1=N/C(=C\c2ccc3c(c2)OCO3)C(=O)N1C [FCFD13] | 1600
2 | CC(O)c1cccc(NC2=N/C(=C\c3ccc4c(c3)OCO4)C(=O)N2C)c1 (racemic) [MADE36] | 260
3 | CCCNC1=N/C(=C\c2ccc3c(c2)OCO3)C(=O)N1 [FC126] | 890
4 | CCOC(=O)CSC1=N/C(=C\c2ccc3c(c2)OCO3)C(=O)N1c1ccccc1 [JR411] | > 10000
5 | CN1C(=O)/C(=C/c2ccc3c(c2)OCO3)N=C1Nc1ccc(O)cc1 [MADE8] | 380
6 | CN1C(=O)/C(=C/c2ccc3c(c2)OCO3)N=C1NC(=O)Cc1ccccc1 [IA25] | > 10000
7 | CCCCN1C(=O)/C(=C/c2ccc3c(c2)OCO3)N=C1SCC [SB05] | > 10000
8 | CC(C)NC1=N/C(=C\c2ccccn2)C(=O)N1C [FC109] | > 10000
9 | CCOC(=O)C(=O)NC1=N/C(=C\c2ccc3c(c2)OCO3)C(=O)N1C [IA35] | > 10000
10 | CNC1=N/C(=C\c2ccc3c(c2)OCO3)C(=O)N1 [FC085] | 1700
11 | O=C1NC(=S)N/C1=C\c1c[nH]c2ccccc12 [ST195] | > 10000
12 | CN1C(=O)/C(=C/c2ccc3c(c2)OCO3)N=C1NC(=O)C(C)(C)C [IA31] | 3400
13 | CCCCN1C(=O)/C(=C/c2ccc3c(c2)OCO3)N=C1NCCCO [SA164] | > 10000
14 | CN1C(=O)/C(=C/c2ccc3c(c2)OCO3)N=C1NCCCO [SA142] | 1300
15 | CCCNC1=N/C(=C\c2ccccc2)C(=O)N1C [FCFD08] | > 10000
16 | CSC1=N/C(=C\c2ccccc2)C(=O)N1C [JR158] | > 10000
17 | COC(CNC1=N/C(=C\c2ccc3c(c2)OCO3)C(=O)N1C)OC [MADE10] | 1400
18 | COCCNC1=N/C(=C\c2ccc3c(c2)OCO3)C(=O)N1C [FC103] | 1200
19 | CCOC(=O)CSC1=N/C(=C\c2ccc3c(c2)OCO3)C(=O)N1C [JR404] | 5800
20 | CC(=O)NC1=N/C(=C\c2ccc3c(c2)OCO3)C(=O)N1C [IA24] | > 10000

Row | SMILES | IC50 [nM]
21 | C=CC(=O)NC1=N/C(=C\c2ccc3c(c2)OCO3)C(=O)N1C [IA32] | 15000
22 | CCCSC1=N/C(=C\c2ccc3c(c2)OCO3)C(=O)N1 [ST122] | 440
23 | CN1C(=O)/C(=C/c2ccc3c(c2)OCO3)N=C1Nc1ccc(O)c(C(=O)O)c1 [MADE33] | 940
24 | CCCNC1=N/C(=C\c2ccc3c(c2)OCO3)C(=O)N1C [FCJR405, (5Z)-5-Benzo[1,3]dioxol-5-ylmethylene-3-methyl-2-propylamino-3,5-dihydroimidazol-4-one] | 2300
25 | CN1C(=O)/C(=C/c2ccc3c(c2)OCO3)N=C1Nc1ccccc1O [MADE9] | 690
26 | CN1C(=O)/C(=C/c2ccc3c(c2)OCO3)N=C1Nc1ccc2c(c1)OCCO2 [MADE29] | 190
27 | CN1C(=O)/C(=C/c2ccc3c(c2)OCO3)N=C1NCC1CC1 [FC107] | 980
28 | CC(C)NC1=N/C(=C\c2ccccc2)C(=O)N1C [FC095] | > 10000
29 | CSC1=N/C(=C\c2ccccn2)C(=O)N1C [JR160] | > 10000
30 | CN1C(=O)/C(=C/c2ccc3c(c2)OCO3)N=C1c1ccc2c(c1)OCO2 [NL88A] | 220
31 | CCNC1=N/C(=C\c2ccc3c(c2)OCO3)C(=O)N1C [FC088] | 900
32 | O=C1NC(Nc2ccccc2)=N/C1=C\c1ccc2c(c1)OCO2 [MADE44] | 71
33 | CN1C(=O)/C(=C/c2ccc3c(c2)OCO3)N=C1Nc1ccccc1 [MADE32] | 400
34 | CN1C(=O)/C(=C/c2ccc3c(c2)OCO3)N=C1NCC(O)CO (stereo not shown) [MADE47] | 790
35 | CN1C(=O)/C(=C/c2ccc3c(c2)OCO3)N=C1NC(=O)c1ccccc1 [IA33] | > 10000
36 | CCCCN1C(=O)/C(=C/c2ccc3c(c2)OCO3)N=C1NCCC [JR442] | > 10000
37 | CCSC1=N/C(=C\c2c[nH]c3ccccc23)C(=O)N1C [FB08] | > 10000
38 | CCCCNC1=N/C(=C\c2ccc3c(c2)OCO3)C(=O)N1C [FCJR457] | 1800
39 | CCCCSC1=N/C(=C\c2c[nH]c3ccccc23)C(=O)N1C [FB17] | > 10000
40 | CCCNC1=N/C(=C\c2ccc3c(c2)OCO3)C(=O)N1c1ccccc1 [JR445] | > 10000

The remaining lines, values ahead:

Row | IC50 [nM] | SMILES
41 | 1400 | CCSC1=N/C(=C\c2ccc3c(c2)OCO3)C(=O)N1C [SB26, (5Z)-5-(1,3-benzodioxol-5-ylmethylene)-3-methyl-2-(ethylthio)-3,5-dihydro-4H-imidazol-4-one]
42 | 460 | CC(C)SC1=N/C(=C\c2ccc3c(c2)OCO3)C(=O)N1 [ST135]
43 | 6800 | CSC1=N/C(=C\c2ccc3c(c2)OCO3)C(=O)N1C [ST099]
44 | > 10000 | CCSC1=N/C(=C\c2ccc(O)c(O)c2)C(=O)N1 [ST286]
45 | > 10000 | O=C1NC(=S)N/C1=C\c1cc(Br)c2c(c1)OCO2 [ST279]
46 | > 10000 | C=CCSC1=N/C(=C\c2ccc3c(c2)OCO3)C(=O)N1CCCC [SB25]
47 | 65000 | COc1cc(/C=C2\NC(=S)NC2=O)cc(Br)c1O [ST229]
48 | > 10000 | CCSC1=N/C(=C\c2ccc(O)c(OC)c2)C(=O)N1C [ST170]
49 | > 10000 | CN1C(=O)/C(=C/c2ccc3c(c2)OC(F)(F)O3)NC1=S [ST089]
50 | 780 | O=C1NC(SCC2CCC2)=N/C1=C\c1ccc2c(c1)OCO2 [ST142]
51 | > 10000 | CCCCN1C(=O)/C(=C/c2cc3c(cc2Br)OCO3)N=C1SCC [SB80]
52 | 3400 | C=CCSC1=N/C(=C\c2ccc3c(c2)OCO3)C(=O)N1C [SB14]
53 | > 10000 | CCSC1=N/C(=C\c2cc(Br)c3c(c2)OCO3)C(=O)N1 [ST280]
54 | 170 | N#CCSC1=N/C(=C\c2ccc3c(c2)OCO3)C(=O)N1 [ST209]
55 | > 10000 | CCCNC1=N/C(=C\c2ccc3c(c2)OC(F)(F)O3)C(=O)N1C [ST092]
56 | 500 | O=C1NC(SCC2CC2)=N/C1=C\c1ccc2c(c1)OCO2 [ST130]
57 | > 10000 | CCCCN1C(=O)/C(=C/c2ccc3c(c2)OCO3)N=C1SCc1ccc([N+](=O)[O-])cc1 [SB60]

Row | IC50 [nM] | SMILES
58 | > 10000 | CCSC1=N/C(=C\c2cc(Br)c3c(c2)OCO3)C(=O)N1C [ST342]
59 | 650 | COCCSC1=N/C(=C\c2ccc3c(c2)OCO3)C(=O)N1 [ST164]
60 | 1800 | CCCSC1=N/C(=C\c2ccc3c(c2)OCO3)C(=O)N1C [ST094]
61 | > 10000 | C#CCSC1=N/C(=C\c2ccc3c(c2)OCO3)C(=O)N1CCCC [SB22]
62 | 1700 | CC(C)CCNC1=N/C(=C\c2ccc3c(c2)OCO3)C(=O)N1C [ST025]
63 | > 10000 | CN1C(=O)/C(=C/c2ccc(O)cc2)NC1=S [ST076]
64 | 6700 | CSC1=N/C(=C\c2ccc(O)cc2)C(=O)N1C [ST078]
65 | 66000 | O=C1NC(=S)N/C1=C\c1ccc(O)c(O)c1 [ST227]
66 | > 10000 | CCCCN1C(=O)/C(=C/c2ccc(OC)c(OC)c2)N=C1SCC [SB58]
67 | > 10000 | CCSC1=N/C(=C\c2cc(OC)cc(OC)c2)C(=O)N1C [SB56]
68 | 470 | CN1C(=O)/C(=C/c2ccc3c(c2)OCO3)N=C1SCC#N [ST211]
69 | > 10000 | NC1=N/C(=C\c2ccc(O)c(O)c2)C(=O)N1 [ST326]
70 | > 10000 | COc1cc(/C=C2\NC(=S)NC2=O)ccc1O [ST202]
71 | 590 | CCCCSC1=N/C(=C\c2ccc3c(c2)OCO3)C(=O)N1 [ST124]
72 | > 10000 | CCSC1=N/C(=C\c2ccc3c(c2)OC(F)(F)O3)C(=O)N1C [ST091]
73 | 900 | C#CCSC1=N/C(=C\c2ccc3c(c2)OCO3)C(=O)N1C [SB16]
74 | 1300 | CC(C)SC1=N/C(=C\c2ccc3c(c2)OCO3)C(=O)N1C [ST097]

same assay, conditions: IC50 DYRK1A

Row | SMILES | IC50 [nM]
75 | COc1ccc(NC2=N/C(=C\c3ccc4c(c3)OCO4)C(=O)N2C)cc1 [MADE39] | 270
76 | CN1C(=O)/C(=C/c2ccc3c(c2)OCO3)N=C1NCCCCCO [MADE23] | 3000
